Results reported in paper PMC2652713, “Molecular Blocking of CD23 Supports Its Role in the Pathogenesis of Arthritis” (PLoS ONE, 2009).

Columns and labels:
[1] = tested on: peritoneal macrophages of AIA rats; experiment: Ex vivo cytokine release from peritoneal macrophages of treated AIA rats, ELISA; assay type: in vivo, rat, Female Lewis; conditions: treatment after onset of symptoms (AIA+p30A, 10 mg/rat; HC 30 mg/rat); cells collected 50 days post-immunization; 48 h culture; 4 rats
Experimental: AIA rats were treated either after (AIA+p30A) or before (p30A+AIA) the onset of symptoms. Treatment consisted of p30A (10 mg/rat) or hydrocortisone (HC, 30 mg/rat). Rat peritoneal macrophages were collected following 50 days post-immunization, washed and re-incubated in culture medium alone. Cell supernatants were collected 48 h later and cytokine levels were quantified. Macrophages from healthy rats were also incubated in similar conditions. Values are mean±s.d. of cells from 4 different rats.
Adjuvant arthritis was induced in six week-old animals by subcutaneous injection at the base of the tail of 300 µl containing 1.8 mg of inactivated Mycobacterium butyricum (Difco Laboratories, Detroit, MI) diluted in emulsion of 8 ml Vaseline, 1 ml polysorbate 80, and 1 ml PBS (Phosphate Buffer Saline, Eurobio). Rats were boosted one week later following the same procedure. Observation was conducted for up to 50 days following immunization for clinical signs of arthritis. Rats were divided in different groups of 8 rats. Groups were treated with five injections (every 2 days) of either p30A (10, 50 or 100 mg in a PBS solution), pCtl, hydrocortisone (Sigma Aldrich) or PBS solution. Injections were initiated two days after the appearance of first arthritic symptoms (therapeutic) or on the first day of immunization (preventive). […] Rats were sacrificed 50 days after AIA induction. Peritoneal macrophages were collected and incubated in culture medium alone for 48 h. Quantification of TNF-α and IL-1β in rat cell supernatants was performed using appropriate ELISA kits and according to manufacturer's recommendations (Biosource, Montrouge, France).

[2] = tested on: adjuvant-induced arthritis in rats; experiment: Adjuvant-induced arthritis (AIA) clinical score in rats; assay type: in vivo, rat, Female Lewis; conditions: AIA rats; pCtl 100 mg/rat
Experimental: Figure 6 Inhibition of in vitro and in vivo inflammatory responses in rats by p30A peptide. (A) Rat peritoneal macrophages were activated via CD23 antigens with/without p30A, L-NIL or pCtl. Cell supernatants were collected 48 h later and nitrite levels were quantified. Values are mean±s.d. of cells from 3 different rats. (B) Cumulative clinical score/rat obtained following 50 days post-immunization in all groups. AIA rats were treated either after or before (d0) the onset of symptoms. Treatment consisted of p30A, hydrocortisone (HC, 30 mg/rat)) or pCtl (100 mg/rat). Shown are means of cumulative score/rat±s.d. from 5 (HC) or 8 rats (other conditions). (C) Evolution of arthritis severity scores of adjuvant-induced arthritis (AIA) in rats treated with intracutaneous p30A or pCtl (100 mg/rat) or hydrocortisone (after the onset of clinical signs as illustrated by arrows (means from 8 rats, s.e.m.<20%). (D) Histopathologic analysis confirm p30A ability to decrease all components of AIA lesions: pannus formation and inflammation of the synovium (P), deformity of joint and bones (asterix), bone remodeling and destruction (arrowhead), bone neoformation (arrows) and cartilage destruction.
All animal procedures were performed in strict accordance with the guidelines issued by the European Economic Community “86/609”. Female Lewis rats (Janvier, Le Genest St Isle, France) were housed under standard laboratory conditions with free access to food and water. The temperature was kept at 22±2°C and a 12 hour light/dark schedule was maintained.
Adjuvant arthritis was induced in six week-old animals by subcutaneous injection at the base of the tail of 300 µl containing 1.8 mg of inactivated Mycobacterium butyricum (Difco Laboratories, Detroit, MI) diluted in emulsion of 8 ml Vaseline, 1 ml polysorbate 80, and 1 ml PBS (Phosphate Buffer Saline, Eurobio). Rats were boosted one week later following the same procedure. Observation was conducted for up to 50 days following immunization for clinical signs of arthritis. Rats were divided in different groups of 8 rats. Groups were treated with five injections (every 2 days) of either p30A (10, 50 or 100 mg in a PBS solution), pCtl, hydrocortisone (Sigma Aldrich) or PBS solution. Injections were initiated two days after the appearance of first arthritic symptoms (therapeutic) or on the first day of immunization (preventive). Evaluation of AIA severity was performed by two independent observers who where not aware of the study protocol. The severity of AIA in each paw was quantified daily using an ordinal clinical score measurement from 0 to 4 as follows: no signs of inflammation ( = 0); swelling alone (>2 fold paw diameter) ( = 1) or swelling/immobility ( = 2) of one paw; swelling ( = 3) or swelling/immobility ( = 4) of two paws. Weight evolution of rats was measured daily. Rats were sacrificed 50 days after AIA induction. Peritoneal macrophages were collected and incubated in culture medium alone for 48 h. Quantification of TNF-α and IL-1β in rat cell supernatants was performed using appropriate ELISA kits and according to manufacturer's recommendations (Biosource, Montrouge, France).

[3] = tested on: healthy human PBL-derived macrophages; experiment: Inflammatory mediator release from healthy human PBL-derived macrophages; assay type: cell-based; conditions: mean±s.d.
Experimental: Figure 4 Inhibition of inflammatory mediator generation from healthy human PBL-derived macrophages by p30A. Decreased levels of TNF-α (A), IL-6 (B), IL-1β, IL-8 and IL-10 (C) were detected in CD23-activated cells after incubation with p30A. […] Values are mean±s.d. of cells from 5 (IL-6, TNF-α) or 2 (IL-1β, IL-8, IL-10) different donors.
(§1) Monocytes or macrophages were activated through CD23 pathway: while monocytes/macrophages from RA patients express CD23, monocytes from healthy donors must be pre-activated to express surface CD23 as described. This pre-activation was obtained by incubation of healthy monocytes with recombinant human IL-4 (20 ng/ml) during 48 h at 37°C; After washing, all cell populations were tested by flow cytometry for their surface CD23 expression (>80% CD23^+) and then incubated in the presence of cross-linking CD23-MAb (clones 135 or DM2, IgG1k, 20 µg/ml) during 48–72 h, or IgE and anti-IgE as described, [17]. When indicated, peptides were added to the cells 2 h prior to their activation. Cells supernatants were then analyzed for their nitric oxide content (see below) and for the presence of cytokines: levels of TNF-α and IL-6 were determined in duplicates for each sample by a specific ELISA (R&D, Paris, France) while levels of IL-1β, IL-8 and IL-10 was determined using FlowCytomix Human Th1/Th2 Kit as recommended (Bender Medsystems, Vienna, Austria).

[4] = tested on: human CD23+ monocyte-derived macrophages; experiment: Nitrite (NO) generation by CD23-activated human macrophages, Griess reaction; assay type: cell-based; conditions: for iNOS-mediated NO generation: pre-incubation prior to CD23-mediated activation, mean±s.d. of 7 donors (Figure 2C)
Experimental: Figure 2 Inhibition of CD23-mediated activation of iNOS pathway in human macrophages by p30A. Human CD23^+ monocyte-derived macrophages were incubated with cross-linking CD23-McAb (20 µg/ml) alone or following 1 h pre-incubation with 10 µg/ml of various peptides. […] Expression of iNOS mRNA was compared to HPRT mRNA levels. (B) Inhibition of NO generation from human activated macrophages by synthetic peptides. Cell supernatants were collected 72 h following cell cultures and levels of nitrites were determined. […] Results are expressed as mean of 3 distinct donor cell preparations (SEM<20%). (C) Inducible NOS-mediated NO generation in human macrophages is decreased following pre-incubation with p30A or L-NIL prior to CD23-mediated activation. Results are expressed as mean±s.d. of 7 distinct donor cell preparations.
as §1
Culture supernatants (72 h) were assayed for the stable end-product of NO, NO2 ^− using the Griess reaction modified as detailed elsewhere. Inhibitory analog of L-arginine, L-NIL (N(6)-(1-iminoethyl)-L-lysine/2HCl, Coger SA, Paris, France) was used to inhibit iNOS-mediated NO generation. This method gave a sensitivity limit of 0.2 µM if low NO2 ^− medium (DMEM) was used. Total RNA was isolated as above from peritoneal macrophages. Reverse transcription-PCR was performed with an automatic thermal cycler (iCycler, Biorad) using the following specific primers: iNOS mRNA sense (5′-[…]-3′, exon 8) and iNOS mRNA antisense (5′-[…]-3′, exon 11). Hypoxanthine phosphoribosyltransferase (HPRT) mRNA sense (5′-[…]-3′) and HPRT mRNA antisense (5′-[…]- 3′) primers were used as controls. The iNOS messenger is represented by a 371-bp band, whereas a 496-bp band indicates the HPRT messenger.

[5] = tested on: asthma; conditions: Phase I; cited from earlier work
From the text: CD23 was also directly triggered by specific antibodies as therapeutic approach.

[6] = tested on: iNOS; conditions: cited from earlier work
From the text: Upon acquisition of CD23 surface expression, human cells may be activated using its biological ligands (e.g. IgE/antigen) or cross-linking with a specific anti-CD23 McAb, [16]. […] To confirm the ability of p30A to inhibit CD23-mediated signaling in human macrophages, we pretreated cells with purified peptides prior to their activation by McAb. Synthetic p30A reduced the levels of inducible nitric oxide syntha ...

Compound: C[C@]12CCC(=O)C=C1CC[C@@H]1[C@@H]2[C@@H](O)C[C@@]2(C)[C@H]1CC[C@]2(O)C(=O)CO [hydrocortisone, reference compound]
- IL-1β release ex vivo, therapeutic [1]: moderately decreased IL-1β levels

Compound: SFNYNYA [pCtl, reference compound]
- beneficial effect on arthritis [2]: this beneficial effect was not found
- IL-6 level ([3]; ELISA, 5 donors): No effect
- TNF-α level ([3]; ELISA, 5 donors): No effect
- IL-1β level ([3]; FlowCytomix, 2 donors): No effect
- IL-8 level ([3]; FlowCytomix, 2 donors): No effect
- IL-10 level ([3]; FlowCytomix, 2 donors): No effect
- NO (nitrite) generation, dose-dependence ([4]; CD23-McAb 20 µg/ml, 1 h pre-incubation with peptide, supernatants at 72 h, mean of 3 donors (SEM<20%)): no effect
- iNOS-mediated NO generation [4]: not observed

Compound: lumiliximab: Primate/human CD23-McAb, developed for the treatment of chronic lymphocytic leukemia
- clinical outcome, asthma [5]: promising therapy in Phase I of clinical trials for asthma

Compound: CC(=N)NCCCC[C@H](N)C(=O)O.Cl.Cl [L-NIL, N(6)-(1-iminoethyl)-L-lysine/2HCl, reference compound]
- iNOS inhibition [6]: specific inhibitor of iNOS
- iNOS-mediated NO generation [4]: decreased
